Data from patent US8993594B2, “Isoquinolin-1(2H)-one derivatives as PARP-1 inhibitors” (Nerviano Medical Sciences S.R.L., priority 2009, dated 2015).
Where a name gives a salt, the structure may show the parent alone.

Assays:
PARP-2 FL = PARP-2 FL (Homo sapiens, UniProt Q9UGN5); experiment: Fluorescence polarization probe displacement assay; type: binding; conditions: for DC50: compound P1 as the probe
Experimental: (§1) Affinity of the tested compounds and their selectivity with respect to the different PARP isoforms of interest was quantified in a displacement assay.
(§2) In all of the experiments, the polarization signal was measured using a Saphire2 plate reader (Tecan). Data analysis was performed using Dynafit software. In particular, titration data were fitted to the following equilibria: Enzyme+probe <==> Complex Enzyme-probe, while displacement data were fitted to the following equilibria: Enzyme+probe <==> Complex Enzyme-probe, Enzyme+Compound <==> Complex Enzyme-Compound, whereby binding of probe and compound on the enzyme are mutually exclusive (pure competitive mechanism). Displacement data were also fitted using Excel spreadsheet (Microsoft Inc. Seattle, USA) to a four parameter logistic model (4PL), or Hill-Slope model to calculate DC50s where the DC50 value represents the compound concentration at which the polarization signal is diminished by 50% compared to untreated controls.
(§3) In agreement, affinity binding constants (KD) were determined by fitting with a pure competitive mechanism. KD values are the average of three independent experiments.

PARP-1 FL = PARP-1 FL (Homo sapiens, UniProt P09874); experiment: Fluorescence polarization probe displacement assay; type: binding; conditions: for DC50: half maximal displacement concentration
Experimental: as §1, §2, §3

[1] = test system: hydrogen peroxide induced PAR formation in HeLa cells; experiment: Cellular PAR assay (inhibition of hydrogen peroxide induced PAR formation); type: cell-based; conditions: Homo sapiens, 0.1 mM hydrogen peroxide 15 min
Experimental: Compounds potencies were evaluated by measuring the inhibition of poly (ADP-ribose) (PAR) chains formation as a marker for PARP-1 inhibition.
Cellular activity of PARP-1 inhibitors was assessed by measuring the inhibition of the hydrogen peroxide induced PAR formation in HeLa cells (ECACC). Cellular PAR levels were measured by immunocytochemistry and quantified using an ArrayScan vTi instrument (Cellomics Thermo Scientific).
Studies were performed as follows: 6000 cells/well were seeded in 96 well plates (Perkin Elmer) in MEM/10% FCS and incubated for 24 hours at 37° C., 5% carbon dioxide. Test compounds were then added at the required concentration for 30′. […] Concentration curves were prepared in MEM/10% FCS from compound stocks in DMSO and final DMSO concentration was 0.002% (v/v). Duplicate wells for each concentration point were prepared with a typical highest compound concentration of 20 μM and serial dilution 1:3. […] Non-specific binding sites were blocked by incubating wells for 30 min in PBS containing 5% (w/v) FBS 0.05% tween20. […] After washing further 3 times in PBS, cellular PAR immunoreactivity was assessed using the ArrayScan vTi instrument, with a Zeiss 10×0.5 N.A. objective, and applying the Cytotoxicity.V3 algorithm (Cellomics/Thermo Fisher) with a XF100 filter. At least 10 fields, corresponding to at least 900 cells, were read for each well.
The following formula is used: IC50=Bottom+(Top−Bottom)/(1+10^((Log EC50−X))); X is the logarithm of concentration. IC50 is the response; IC50 starts at Bottom and goes to Top with a sigmoid shape.

PARP-3 FL = target: T1, PARP-3 FL (Homo sapiens, UniProt Q9Y6F1); experiment: Fluorescence polarization probe displacement assay; type: binding; conditions: compound P1 as the probe
T1 sequence (Q9Y6F1 1-533): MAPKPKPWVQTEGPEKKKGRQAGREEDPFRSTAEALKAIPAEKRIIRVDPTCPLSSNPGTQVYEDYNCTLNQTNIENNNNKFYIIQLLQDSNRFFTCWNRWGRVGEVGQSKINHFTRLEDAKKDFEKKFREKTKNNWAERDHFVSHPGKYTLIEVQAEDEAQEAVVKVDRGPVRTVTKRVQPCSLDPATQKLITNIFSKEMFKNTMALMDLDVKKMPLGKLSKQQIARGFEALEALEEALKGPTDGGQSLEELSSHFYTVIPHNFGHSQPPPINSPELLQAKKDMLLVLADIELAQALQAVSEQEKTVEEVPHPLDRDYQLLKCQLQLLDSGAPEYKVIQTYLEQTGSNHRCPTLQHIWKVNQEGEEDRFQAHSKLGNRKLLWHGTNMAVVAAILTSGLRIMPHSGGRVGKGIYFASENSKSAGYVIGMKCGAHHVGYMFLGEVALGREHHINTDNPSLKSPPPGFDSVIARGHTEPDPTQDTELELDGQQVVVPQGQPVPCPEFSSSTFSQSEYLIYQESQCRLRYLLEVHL
Experimental: as §1, §2, §3

[2] = Pharmacokinetics and oral bioavailability in the mouse; type: in vivo
Experimental: The compounds were formulated in 10% tween 80/dextrose for intravenous bolus administration while oral administrations were performed using the compounds formulated in 0.5% methylcellulose. A single administration at the dose of 10 mg/kg was given and three male animals for each route were used. […] Plasma samples were prepared by plasma proteins precipitation adding 200 µl of methanol to 10 µl of plasma in a 96 well plate. […] The supernatant was considered as final extract and injected onto the LC-MS-MS system (HPLC system: Hewlett Packard 1100 series using Atlantis HILIC Silica 50*2.1 mm 5.0 μM analytical column; MS instrument: Perkin Elmer SCIEX API 2000 and ionization performed with Turbo Ion Spray in positive ion mode). Lower limit of quantification is 5.0 ng/ml, upper limit of quantification is 10000 ng/ml. […] Non-compartmental method (linear trapezoidal rule and linear regression analysis of natural log-transformed plasma concentrations vs. time data) was used. After intravenous dosing, C0 was set equal to C0.083, Absolute bioavailability (F) was calculated from the ratio of average oral to IV (intravenous) dose-normalized plasma AUC (area under curve) values.

PARP-2 FL, sequence (Q9UGN5 whole entry): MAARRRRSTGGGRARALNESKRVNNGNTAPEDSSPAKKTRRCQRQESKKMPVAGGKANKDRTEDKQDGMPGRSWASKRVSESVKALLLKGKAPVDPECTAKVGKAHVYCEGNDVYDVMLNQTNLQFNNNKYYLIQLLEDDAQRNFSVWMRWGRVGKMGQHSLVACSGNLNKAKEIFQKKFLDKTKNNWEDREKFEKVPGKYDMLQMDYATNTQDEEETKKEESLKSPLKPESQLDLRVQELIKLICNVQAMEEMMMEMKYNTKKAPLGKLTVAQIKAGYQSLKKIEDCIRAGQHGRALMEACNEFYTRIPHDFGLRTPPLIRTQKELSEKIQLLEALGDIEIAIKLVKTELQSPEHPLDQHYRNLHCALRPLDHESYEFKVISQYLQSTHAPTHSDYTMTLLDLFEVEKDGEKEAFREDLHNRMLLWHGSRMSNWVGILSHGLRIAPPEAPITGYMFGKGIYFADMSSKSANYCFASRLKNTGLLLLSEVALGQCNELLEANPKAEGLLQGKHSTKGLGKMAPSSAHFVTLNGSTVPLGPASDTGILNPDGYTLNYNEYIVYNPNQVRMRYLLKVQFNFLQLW
PARP-1 FL, sequence (P09874 whole entry): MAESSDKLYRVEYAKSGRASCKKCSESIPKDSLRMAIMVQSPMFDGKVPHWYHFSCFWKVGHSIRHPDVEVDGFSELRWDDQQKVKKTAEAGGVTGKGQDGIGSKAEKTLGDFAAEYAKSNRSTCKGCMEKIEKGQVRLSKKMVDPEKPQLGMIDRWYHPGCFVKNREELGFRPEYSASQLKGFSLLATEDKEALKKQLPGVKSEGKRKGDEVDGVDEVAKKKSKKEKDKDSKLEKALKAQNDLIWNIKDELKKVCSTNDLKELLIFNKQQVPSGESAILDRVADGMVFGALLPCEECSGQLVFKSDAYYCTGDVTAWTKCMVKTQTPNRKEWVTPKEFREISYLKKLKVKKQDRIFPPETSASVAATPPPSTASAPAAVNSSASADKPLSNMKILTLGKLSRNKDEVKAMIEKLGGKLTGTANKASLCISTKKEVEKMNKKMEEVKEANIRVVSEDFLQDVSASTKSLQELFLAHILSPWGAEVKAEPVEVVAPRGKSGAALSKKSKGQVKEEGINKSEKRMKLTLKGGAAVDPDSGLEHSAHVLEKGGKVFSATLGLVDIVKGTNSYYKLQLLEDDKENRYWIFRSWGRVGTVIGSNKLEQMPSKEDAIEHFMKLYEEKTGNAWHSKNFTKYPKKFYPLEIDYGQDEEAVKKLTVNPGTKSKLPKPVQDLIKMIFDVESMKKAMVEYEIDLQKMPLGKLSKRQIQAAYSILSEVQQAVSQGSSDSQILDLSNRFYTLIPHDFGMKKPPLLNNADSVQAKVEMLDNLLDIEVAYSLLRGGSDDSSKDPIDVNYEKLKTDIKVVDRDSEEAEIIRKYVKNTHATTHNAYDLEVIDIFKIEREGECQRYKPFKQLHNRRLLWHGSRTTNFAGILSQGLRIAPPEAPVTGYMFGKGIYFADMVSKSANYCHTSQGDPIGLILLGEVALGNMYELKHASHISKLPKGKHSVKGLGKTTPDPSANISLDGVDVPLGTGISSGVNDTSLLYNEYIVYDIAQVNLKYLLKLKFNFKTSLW

Row | Compound | Kd (PARP-2 FL) | DC50 (PARP-2 FL) | Kd (PARP-1 FL) | DC50 (PARP-1 FL) | IC50 [1] | DC50 (PARP-3 FL) | Displacement of the probe (compound P1 or compound P3) (PARP-1 FL; from all of the tested PARP isoforms) | F on AUC ([2]; 10 mg/kg, ratio of oral to IV dose-normalized plasma AUC) | clearance ([2]; male, Balb Nu/Nu, plasma, 10 mg/kg intravenous bolus, mean value, read-out: CL(IV bolus)) | Vd ([2]; male, Balb Nu/Nu, plasma, 10 mg/kg intravenous bolus, mean value, read-out: Vdss (IV bolus)) | AUC ([2]; male, Balb Nu/Nu, plasma, 10 mg/kg oral, mean value) | half-life ([2]; male, Balb Nu/Nu, plasma, 10 mg/kg oral, mean value, read-out: T½ (oral) (converted))
1 | O=c1[nH]c(-c2ccccc2)c(OCCCN2CCNCC2)c2ccccc12 [Compound 14, 3-Phenyl-4-(3-piperazin-1-yl-propoxy)-2H-isoquinolin-1-one di-hydrochloride] | 6.13 µM | 4.29 µM | < 0.03 µM | < 0.25 µM | 4.2 µM | – | – | – | – | – | – | –
2 | O=c1[nH]c(-c2ccccc2)c(OCCN2CCNCC2)c2ccccc12 [Compound 6, 3-Phenyl-4-(2-piperazin-1-yl-ethoxy)-2H-isoquinolin-1-one di-hydrochloride] | > 10 µM | > 10 µM | < 0.03 µM | < 0.25 µM | 0.86 µM | – | – | – | – | – | – | –
3 | NCCOc1c(-c2cccc(O)c2)[nH]c(=O)c2ccccc12 [Compound 32, 4-(2-Amino-ethoxy)-3-(3-hydroxy-phenyl)-2H-isoquinolin-1-one hydrochloride] | 0.45 µM | 0.79 µM | < 0.03 µM | < 0.25 µM | 0.2 µM | 0.28 µM | – | – | – | – | – | –
4 | CNCCOc1c(-c2ccccc2)[nH]c(=O)c2ccccc12 [Compound 16, 4-(2-Methylamino-ethoxy)-3-phenyl-2H-isoquinolin-1-one] | 2.44 µM | – | < 0.03 µM | < 0.25 µM | 0.48 µM | – | – | – | – | – | – | –
5 | CC(=O)NCCOc1c(-c2ccccc2)[nH]c(=O)c2ccccc12 [Compound 2, N-[2-(1-Oxo-3-phenyl-1,2-dihydro-isoquinolin-4-yloxy)-ethyl]-acetamide] | 6.28 µM | – | 0.2 µM | 0.32 µM | 6.72 µM | – | – | – | – | – | – | –
6 | O=c1[nH]c(-c2ccccc2)c(OCCCN2CCCCC2)c2ccc(Cl)cc12 [Compound 37, 7-Chloro-3-phenyl-4-(3-piperidin-1-yl-propoxy)-2H-isoquinolin-1-one] | – | – | – | < 0.25 µM | 0.62 µM | – | – | – | – | – | – | –
7 | CN1CCN(CCOc2c(-c3ccccc3)[nH]c(=O)c3cc(F)ccc23)CC1 [Compound 89, 7-fluoro-4-[2-(4-methylpiperazin-1-yl)ethoxy]-3-phenylisoquinolin-1(2H)-one trifluoroacetate] | – | > 10 µM | – | 0.4 µM | 7.55 µM | 6.45 µM | – | – | – | – | – | –
8 | NC(=O)c1cccc(N)c1 [Compound 3-AB, 3-aminobenzamide, reference compound] | – | – | – | – | – | – | fully displaced | – | – | – | – | –
9 | O=C(NCCCOc1c(-c2ccccc2)[nH]c(=O)c2ccccc12)c1ccccc1 [Compound 8, N-[3-(1-Oxo-3-phenyl-1,2-dihydro-isoquinolin-4-yloxy)-propyl]benzamide] | – | 4.29 µM | – | 0.82 µM | – | – | – | – | – | – | – | –
10 | CC(=O)NCCCOc1c(-c2ccccc2)[nH]c(=O)c2ccccc12 [Compound 4, N-[3-(1-Oxo-3-phenyl-1,2-dihydro-isoquinolin-4-yloxy)-propyl]-acetamide] | 0.95 µM | 0.91 µM | 0.19 µM | 0.31 µM | – | – | – | – | – | – | – | –
11 | O=c1[nH]c(-c2ccccc2)c(OCCCN2CCCCC2)c2ccc(F)cc12 [Compound 38, 7-Fluoro-3-phenyl-4-(3-piperidin-1-yl-propoxy)-2H-isoquinolin-1-one] | – | 3.78 µM | – | < 0.25 µM | 0.3 µM | – | – | – | – | – | – | –
12 | NCCCOc1c(-c2ccccc2)[nH]c(=O)c2ccccc12 [Compound 3, 4-(3-Amino-propoxy)-3-phenyl-2H-isoquinolin-1-one hydrochloride] | 3.92 µM | 4.1 µM | < 0.03 µM | < 0.25 µM | 3.26 µM | – | – | – | – | – | – | –
13 | COc1cccc(-c2[nH]c(=O)c3cc(F)ccc3c2OCCCN2CCCCC2)c1 [Compound 43, 7-Fluoro-3-(3-methoxy-phenyl)-4-(3-piperidin-1-yl-propoxy)-2H-isoquinolin-1-one hydrochloride] | 2.02 µM | 4.21 µM | 0.04 µM | < 0.25 µM | 0.09 µM | 2.52 µM | – | – | – | – | – | –
14 | NCCOc1c(-c2ccccc2)[nH]c(=O)c2ccccc12 [Compound 1, 4-(2-Amino-ethoxy)-3-phenyl-2H-isoquinolin-1-one hydrochloride] | 3.07 µM | 2.89 µM | < 0.03 µM | < 0.25 µM | 0.79 µM | – | – | – | – | – | – | –
15 | COc1cccc(-c2[nH]c(=O)c3cc(F)ccc3c2OCCN)c1 [Compound 46, 4-(2-Amino-ethoxy)-7-fluoro-3-(3-methoxy-phenyl)-2H-isoquinolin-1-one hydrochloride] | 3.61 µM | 5.99 µM | < 0.01 µM | < 0.25 µM | 0.06 µM | 0.37 µM | – | – | – | – | – | –
16 | O=c1[nH]c(-c2ccccc2)c(OCCCN2CCCCC2)c2ccccc12 [Compound 5, 3-Phenyl-4-(3-piperidin-1-yl-propoxy)-2H-isoquinolin-1-one trifluoroacetate] | 4.59 µM | 4.34 µM | < 0.03 µM | < 0.25 µM | 1.44 µM | – | – | – | – | – | – | –
17 | O=c1[nH]c(-c2ccccc2)c(OC2CCNCC2)c2ccc(F)cc12 [Compound 85, 7-fluoro-3-phenyl-4-(piperidin-4-yloxy)isoquinolin-1(2H)-one hydrochloride] | – | 4.35 µM | – | 0.38 µM | – | 0.54 µM | – | – | – | – | – | –
18 | COc1cccc(-c2[nH]c(=O)c3ccccc3c2OCCCN2CCCCC2)c1 [Compound 10, 3-(3-Methoxy-phenyl)-4-(3-piperidin-1-yl-propoxy)-2H-isoquinolin-1-one] | 4.39 µM | – | 0.05 µM | 0.35 µM | 0.33 µM | – | – | – | – | – | – | –
19 | NCCOc1c(-c2ccsc2)[nH]c(=O)c2ccccc12 [Compound 29, 4-(2-Amino-ethoxy)-3-thiophen-3-yl-2H-isoquinolin-1-one hydrochloride] | – | 0.54 µM | < 0.03 µM | < 0.25 µM | – | 0.2 µM | – | – | – | – | – | –
20 | CC(=O)N1CCN(CCOc2c(-c3ccccc3)[nH]c(=O)c3ccccc23)CC1 [Compound 7, 4-[2-(4-Acetyl-piperazin-1-yl)-ethoxy]-3-phenyl-2H-isoquinolin-1-one] | > 10 µM | > 10 µM | < 0.03 µM | < 0.25 µM | – | – | – | – | – | – | – | –
21 | CN1CCN(CCCOc2c(-c3ccccc3)[nH]c(=O)c3ccccc23)CC1 [Compound 20, 4-[3-(4-Methyl-piperazin-1-yl)-propoxy]-3-phenyl-2H-isoquinolin-1-one di hydrochloride] | 5.35 µM | 5.52 µM | 0.05 µM | < 0.25 µM | 6.5 µM | – | – | – | – | – | – | –
22 | COc1ccc(-c2[nH]c(=O)c3ccccc3c2OCCCN2CCCCC2)cc1 [Compound 23, 3-(4-Methoxy-phenyl)-4-(3-piperidin-1-yl-propoxy)-2H-isoquinolin-1-one] | – | – | < 0.03 µM | < 0.25 µM | 0.17 µM | 0.48 µM | – | – | – | – | – | –
23 | CNCCCOc1c(-c2ccccc2)[nH]c(=O)c2ccccc12.Cl [Compound 12, 4-(3-Methylamino-propoxy)-3-phenyl-2H-isoquinolin-1-one hydrochloride] | 1.65 µM | 2.91 µM | 0.05 µM | < 0.25 µM | 0.42 µM | – | – | 17% | 177 mL/min/kg | 3.3 L/kg | 0.52 µM·h | 1.19 h
24 | CN1CCN(CCOc2c(-c3ccccc3)[nH]c(=O)c3ccccc23)CC1 [Compound 19, 4-[2-(4-Methyl-piperazin-1-yl)-ethoxy]-3-phenyl-2H-isoquinolin-1-one di hydrochloride] | 7.29 µM | – | < 0.03 µM | < 0.25 µM | – | – | – | – | – | – | – | –
25 | CN(C)CCOc1c(-c2ccccc2)[nH]c(=O)c2ccccc12 [Compound 17, 4-(2-Dimethylamino-ethoxy)-3-phenyl-2H-isoquinolin-1-one] | 1.01 µM | 3.28 µM | < 0.03 µM | < 0.25 µM | 0.34 µM | – | – | – | – | – | – | –
26 | COc1cccc(-c2[nH]c(=O)c3ccccc3c2OCCN2CCCCC2)c1 [Compound 9, 3-(3-Methoxy-phenyl)-4-(2-piperidin-1-yl-ethoxy)-2H-isoquinolin-1-one] | – | 0.86 µM | – | 0.37 µM | – | – | – | – | – | – | – | –
27 | O=c1[nH]c(-c2ccccc2)c(OCCCN2CCCC2)c2ccccc12 [Compound 21, 3-Phenyl-4-(3-pyrrolidin-1-yl-propoxy)-2H-isoquinolin-1-one] | 1.36 µM | 1.58 µM | 0.04 µM | < 0.25 µM | 8.3 µM | – | – | – | – | – | – | –
28 | CCN(CC)CCCOc1c(-c2ccccc2)[nH]c(=O)c2ccccc12 [Compound 18, 4-(3-Diethylamino-propoxy)-3-phenyl-2H-isoquinolin-1-one hydrochloride] | 8.65 µM | – | < 0.03 µM | < 0.25 µM | 0.85 µM | – | – | – | – | – | – | –
29 | NCCCCOc1c(-c2ccccc2)[nH]c(=O)c2ccccc12 [Compound 22, 4-(4-Amino-butoxy)-3-phenyl-2H-isoquinolin-1-one hydrochloride] | 1.34 µM | 4.08 µM | < 0.03 µM | < 0.25 µM | 9.5 µM | – | – | – | – | – | – | –
